In ChEMBL document CHEMBL1133625, “Crystal structures of human factor Xa complexed with potent inhibitors” (J Med Chem, 2000):

Experiments:
Trypsin II = target: T1, Trypsin II (Bos taurus, UniProt Q29463); assay: Binding affinity on bovine pancreatic trypsin enzyme
T1 sequence (Q29463 whole entry): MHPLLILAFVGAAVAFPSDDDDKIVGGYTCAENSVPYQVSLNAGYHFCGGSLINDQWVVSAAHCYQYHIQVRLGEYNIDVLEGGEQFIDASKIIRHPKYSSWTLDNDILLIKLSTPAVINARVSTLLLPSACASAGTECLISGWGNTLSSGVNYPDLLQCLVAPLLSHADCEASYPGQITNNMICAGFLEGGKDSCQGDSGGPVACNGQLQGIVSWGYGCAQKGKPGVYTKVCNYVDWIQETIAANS

Prothrombin = Prothrombin (Homo sapiens, UniProt P00734); assay: Binding affinity on Thrombin

Ki (Trypsin II) [nM]	Ki (Prothrombin) [µM]	SMILES
> 2900		Nc1nccc2ccc(CN3CC[C@H](NS(=O)(=O)c4cc5ncccc5s4)C3=O)cc12
> 2900	> 4	O=C1[C@@H](NS(=O)(=O)c2cc3ncccc3s2)CCN1Cc1cc2cc[nH]cc-2n1
